# Data: US9708337B2, “Aryl amide-based kinase inhibitors” (Bristol-Myers Squibb Company, priority 2013, dated 2017)
# pIC50: −log10 of the molar value.
# Target: AAK1 (GST-Xa-hAAK1) (Homo sapiens (Human), UniProt Q2M2I8)
# Assay: AAK1 Kinase Assay
# Type: biochemical
# Details: not given
# Experimental: The assays were performed in U-bottom 384-well plates. […] The reactions were initiated by the combination of bacterially expressed, GST-Xa-hAAK1 with substrates and test compounds. The reactions were incubated at room temperature for 3 hours and terminated by adding 60 μl of 35 mM EDTA buffer to each sample. […] Compounds were dissolved at 10 mM in dimethylsulfoxide (DMSO) and evaluated at eleven concentrations. IC50 values were derived by non-linear regression analysis.
# Sequence of AAK1 (GST-Xa-hAAK1) (Q2M2I8 whole entry): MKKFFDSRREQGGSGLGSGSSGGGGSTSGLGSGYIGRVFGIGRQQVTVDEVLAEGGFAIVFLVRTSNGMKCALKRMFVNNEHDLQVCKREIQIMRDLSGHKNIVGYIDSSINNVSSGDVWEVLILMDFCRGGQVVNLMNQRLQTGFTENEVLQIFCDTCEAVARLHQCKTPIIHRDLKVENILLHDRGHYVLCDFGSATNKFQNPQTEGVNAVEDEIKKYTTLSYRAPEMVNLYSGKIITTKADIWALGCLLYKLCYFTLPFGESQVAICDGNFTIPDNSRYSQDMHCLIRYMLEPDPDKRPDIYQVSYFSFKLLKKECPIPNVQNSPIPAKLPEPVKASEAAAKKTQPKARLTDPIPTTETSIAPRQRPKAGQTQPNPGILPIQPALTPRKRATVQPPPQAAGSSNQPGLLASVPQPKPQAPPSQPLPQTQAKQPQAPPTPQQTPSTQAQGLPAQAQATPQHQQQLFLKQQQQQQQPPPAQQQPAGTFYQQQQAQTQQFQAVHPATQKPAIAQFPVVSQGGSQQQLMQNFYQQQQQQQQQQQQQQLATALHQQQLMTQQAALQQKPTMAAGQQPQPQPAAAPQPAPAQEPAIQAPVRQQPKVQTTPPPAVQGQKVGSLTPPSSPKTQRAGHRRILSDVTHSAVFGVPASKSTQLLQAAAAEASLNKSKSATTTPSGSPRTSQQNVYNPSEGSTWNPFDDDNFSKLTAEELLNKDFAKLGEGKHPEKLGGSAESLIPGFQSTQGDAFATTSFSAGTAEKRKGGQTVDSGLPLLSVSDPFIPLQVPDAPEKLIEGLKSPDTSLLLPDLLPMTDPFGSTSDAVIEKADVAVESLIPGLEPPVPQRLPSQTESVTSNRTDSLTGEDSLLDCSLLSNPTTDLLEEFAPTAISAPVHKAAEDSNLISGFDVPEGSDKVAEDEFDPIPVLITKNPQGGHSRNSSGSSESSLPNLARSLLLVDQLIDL
row,Compound,pIC50
1,"C#CCCC(=O)Nc1ccc2c(c1)OCc1cnccc1-2 [Example 14, N-(5H-chromeno[3,4-c]pyridin-8-yl)pent-4-ynamide]",7.00 to 8.00
2,"CC(C)C[C@@H](N)C(=O)Nc1ccc2c(c1)OCc1cnccc1-2 [Example 1, (R)-2-amino-N-(5H-chromeno[3,4-c]pyridin-8-yl)-4-methylpentanamide]",8.00 to 9.00
3,"O=C(CCO)Nc1ccc2c(c1)OCc1cnccc1-2 [Example 19, N-(5H-chromeno[3,4-c]pyridin-8-yl)-3-hydroxypropanamide]",5.92 to 7.00
4,"N#CCC(=O)Nc1ccc2c(c1)OCc1cnccc1-2 [Example 25, N-(5H-chromeno[3,4-c]pyridin-8-yl)-2-cyanoacetamide]",5.92 to 7.00
5,"NS(=O)(=O)CCCC(=O)Nc1ccc2c(c1)OCc1cnccc1-2 [Example 21, N-(5H-chromeno[3,4-c]pyridin-8-yl)-4-sulfamoylbutanamide]",5.92 to 7.00
6,"CC(C)CC(=O)Nc1ccc2c(c1)OCc1cnccc1-2 [Example 27, N-(5H-chromeno[3,4-c]pyridin-8-yl)-3-methylbutanamide]",7.00 to 8.00
7,"O=C(Nc1ccc2c(c1)OCc1cnccc1-2)NC1CCCCC1 [Example 13, 1-(5H-chromeno[3,4-c]pyridin-8-yl)-3-cyclohexylurea]",5.92 to 7.00
8,"O=C(Nc1ccc2c(c1)OCc1cnccc1-2)C1CCCCC1 [Example 23, N-(5H-chromeno[3,4-c]pyridin-8-yl)cyclohexanecarboxamide]",5.92 to 7.00
9,"CCC(=O)Nc1ccc2c(c1)OCc1cnccc1-2 [Example 28, N-(5H-chromeno[3,4-c]pyridin-8-yl)propionamide]",5.92 to 7.00
10,"COC(=O)CCC(=O)Nc1ccc2c(c1)OCc1cnccc1-2 [Example 29, methyl 4-((5H-chromeno[3,4-c]pyridin-8-yl)amino)-4-oxobutanoate]",5.92 to 7.00
11,"CCCC(=O)Nc1ccc2c(c1)OCc1cnccc1-2 [Example 31, N-(5H-chromeno[3,4-c]pyridin-8-yl)butyramide]",7.00 to 8.00
12,"CC(C)C[C@H](N)C(=O)Nc1ccc2c(c1)OCc1cnccc1-2 [Example 2, (S)-2-amino-N-(5H-chromeno[3,4-c]pyridin-8-yl)-4-methylpentanamide]",8.00 to 9.00
13,"N#CC1(C(=O)Nc2ccc3c(c2)OCc2cnccc2-3)CC1 [Example 20, N-(5H-chromeno[3,4-c]pyridin-8-yl)-1-cyanocyclopropanecarboxamide]",5.92 to 7.00
14,"CC(C)(C)CC(=O)Nc1ccc2c(c1)OCc1cnccc1-2 [Example 26, N-(5H-chromeno[3,4-c]pyridin-8-yl)-3,3-dimethylbutanamide]",7.00 to 8.00
15,"COCCC(=O)Nc1ccc2c(c1)OCc1cnccc1-2 [Example 18, N-(5H-chromeno[3,4-c]pyridin-8-yl)-3-methoxypropanamide]",5.92 to 7.00
16,"CC(C)(C)COC(=O)Nc1ccc2c(c1)OCc1cnccc1-2 [Example 12, neopentyl 5H-chromeno[3,4-c]pyridin-8-ylcarbamate]",5.92 to 7.00
17,"CC(C)C(=O)Nc1ccc2c(c1)OCc1cnccc1-2 [Example 24, N-(5H-chromeno[3,4-c]pyridin-8-yl)isobutyramide]",5.92 to 7.00
18,"CC(C)C[C@@H](N)C(=O)Nc1ccc2c(c1)OC(C)(C)c1cnccc1-2 [Example 8, (R)-2-amino-N-(5,5-dimethyl-5H-chromeno[3,4-c]pyridin-8-yl)-4-methylpentanamide]",7.00 to 8.00
19,"CC(=O)Nc1ccc2c(c1)OCc1cnccc1-2 [Example 17, N-(5H-chromeno[3,4-c]pyridin-8-yl)acetamide]",5.92 to 7.00
20,"CC(C)(C)C(=O)Nc1ccc2c(c1)OCc1cnccc1-2 [Example 32, N-(5H-chromeno[3,4-c]pyridin-8-yl)pivalamide]",5.92 to 7.00
21,"N[C@H](CNc1ccc2c(c1)OCc1cnccc1-2)c1ccccc1 [Example 37, (S)—N^1-(5H-chromeno[3,4-c]pyridin-8-yl)-2-phenylethane-1,2-diamine]",7.00 to 8.00
22,"CCCCC(=O)Nc1cc2c(cc1Br)-c1ccncc1CO2 [Example 34, N-(9-bromo-5H-chromeno[3,4-c]pyridin-8-yl)pentanamide]",7.00 to 8.00

# Same assay, conditions: Table 1a, listed as IC50 ranges; ATP 22 μM; read-out: AAK1 IC50
row,Compound,pIC50
1,"CC(=O)Nc1cc2c(cn1)COc1cc(NC(=O)[C@@H](N)CC(C)C)ccc1-2 [Example 35, (S)—N-(2-acetamido-5H-chromeno[3,4-c]pyridin-8-yl)-2-amino-4-methylpentanamide]",7.00 to 8.00
2,"CC(C)CCC(=O)Nc1ccc2c(c1)OCc1cnccc1-2 [Example 30, N-(5H-chromeno[3,4-c]pyridin-8-yl)-4-methylpentanamide]",7.00 to 8.00
3,"N#CCCC(=O)Nc1ccc2c(c1)OCc1cnccc1-2 [Example 16, N-(5H-chromeno[3,4-c]pyridin-8-yl)-3-cyanopropanamide]",5.92 to 7.00
4,"CC(C)C[C@H](N)C(=O)Nc1ccc2c(c1)oc(=O)c1cnccc12 [Example 11, (S)-2-amino-4-methyl-N-(5-oxo-5H-chromeno[3,4-c]pyridin-8-yl)pentanamide]",5.92 to 7.00
5,"CN(C)CC(=O)Nc1ccc2c(c1)OCc1cnccc1-2 [Example 33, N-(5H-chromeno[3,4-c]pyridin-8-yl)-2-(dimethylamino)acetamide]",5.92 to 7.00

# Same assay, conditions: Table 1a, numeric values; ATP 22 μM; read-out: AAK1 IC50
row,Compound,pIC50
1,"N[C@H](C(=O)Nc1ccc2c(c1)OCc1cnccc1-2)c1ccccc1 [Example 36, (S)-2-amino-N-(5H-chromeno[3,4-c]pyridin-8-yl)-2-phenylacetamide]",8.05
2,"CC(C)C1CCCNC1C(=O)Nc1ccc2c(c1)OCc1cnccc1-2 (centres unmarked) [Example 10, N-(5H-chromeno[3,4-c]pyridin-8-yl)-3-isopropylpiperidine-2-carboxamide]",8.89
3,"O=C(CCN1CCCC1=O)Nc1ccc2c(c1)OCc1cnccc1-2 [Example 22, N-(5H-chromeno[3,4-c]pyridin-8-yl)-3-(2-oxopyrrolidin-1-yl)propanamide]",5.92
4,"CCCCC(=O)Nc1ccc2c(c1)OCc1cnccc1-2 [Example 15, N-(5H-chromeno[3,4-c]pyridin-8-yl)pentanamide]",7.59
5,"CC(C)C[C@H](N)C(=O)Nc1ccc2c(c1)OC(C)(C)c1cnccc1-2 [Example 9, (S)-2-amino-N-(5,5-dimethyl-5H-chromeno[3,4-c]pyridin-8-yl)-4-methylpentanamide]",6.89
